Tests used:
human mast cells = conditions: in vitro; cited from earlier work
[1] = Compatibility of desloratadine with common excipients; type: physicochemical; conditions: lactose, magnesium stearate, microcrystalline stearate; degrades and changes to a pink colour
Source text: Therefore, extreme caution needs to be taken when formulating desloratadine with various excipients. […] This decomposition is further accelerated under high temperature and humid conditions.

Clc1ccc2c(c1)CCc1cccnc1C2=C1CCNCC1 [Desloratadine, 8-chloro-6,11-dihydro-11-(4-piperidylidene)-5-H-benzo [5,6] cyclohepta [1,2-b] pyridine]
histamine release from human mast cells (human mast cells): inhibits histamine release | compatibility with common excipients [1]: incompatible

From US20070281960A1, “Anti-Histaminic Composition” (priority 2004, published 2007)
